Results on 34 compounds are retold here after patent US9150577B2, “Heterocyclic compounds containing an indole core” (Boehringer Ingelheim International GmbH, priority 2009, dated 2015).

For orientation: IC50 means the concentration needed to halve the response being measured.

Molecules are shown by their SMILES.

Human RSK2, sequence (P51812 whole entry): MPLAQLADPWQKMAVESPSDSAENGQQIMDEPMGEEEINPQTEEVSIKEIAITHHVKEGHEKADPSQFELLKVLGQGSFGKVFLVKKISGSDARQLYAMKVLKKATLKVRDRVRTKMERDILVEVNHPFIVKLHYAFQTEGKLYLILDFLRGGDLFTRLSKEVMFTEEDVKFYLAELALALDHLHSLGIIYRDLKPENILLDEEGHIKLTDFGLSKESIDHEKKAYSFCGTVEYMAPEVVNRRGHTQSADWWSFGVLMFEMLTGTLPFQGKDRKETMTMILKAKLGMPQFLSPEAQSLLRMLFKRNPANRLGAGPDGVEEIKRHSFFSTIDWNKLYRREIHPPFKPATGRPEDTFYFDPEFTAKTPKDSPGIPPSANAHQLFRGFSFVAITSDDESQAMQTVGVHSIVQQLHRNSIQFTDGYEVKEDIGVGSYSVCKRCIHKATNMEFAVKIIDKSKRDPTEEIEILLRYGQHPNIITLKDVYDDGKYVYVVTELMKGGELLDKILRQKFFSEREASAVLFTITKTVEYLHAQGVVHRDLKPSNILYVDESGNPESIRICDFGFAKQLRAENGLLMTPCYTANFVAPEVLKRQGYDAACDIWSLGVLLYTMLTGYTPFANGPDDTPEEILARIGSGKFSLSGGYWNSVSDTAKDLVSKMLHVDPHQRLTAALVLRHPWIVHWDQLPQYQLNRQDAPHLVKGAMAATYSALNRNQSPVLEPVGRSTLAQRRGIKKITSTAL

This experiment concerns the target Human RSK2 (Homo sapiens (Human), UniProt P51812). The experiment can be described thus: Human RSK2 assay (Kinase Glo Plus, residual ATP).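 Further: recombinant human RSK2 phosphorylating a substrate peptide, 90 min at 28 °C, leftover ATP read by luminescence, RLU scaled between no-kinase background and uninhibited kinase controls, 4-parameter fit.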 In kind it is biochemical. A general note: In Kinase-Glo more light means more ATP remaining.
As to `C[C@H]1CNC(=O)c2cc3ccc(C(=O)Nc4nc5ccccc5n4CCCN(C)C)cc3n2[C@H]1C` (relative stereo) [Example 92, N-{1-[3-(dimethylamino)propyl]-1H-benzimidazol-2-yl}-cis-4,5-dimethyl-1-oxo-2,3,4,5-tetrahydro-1H-[1,4]diazepino[1,2-a]indole-8-carboxamide], the IC50 came to 2 nM.

Take `O=C(Nc1cnn(CCN2CCOCC2)c1)c1ccc2cc3n(c2c1)CCCNC3=O` [Example 37, N-{1-[2-(morpholin-4-yl)ethyl]-1H-pyrazol-4-yl}-1-oxo-2,3,4,5-tetrahydro-1H-[1,4]diazepino[1,2-a]indole-8-carboxamide]: the IC50 stood at 84 nM.

Take `Cc1noc(NC(=O)c2ccc3cc4n(c3c2)CCCNC4=O)c1Cl` [Example 194, N-(4-chloro-3-methyl-1,2-oxazol-5-yl)-1-oxo-2,3,4,5-tetrahydro-1H-[1,4]diazepino[1,2-a]indole-8-carboxamide]: the IC50 worked out at 3300 nM. Take `N#Cc1ccc2[nH]c(NC(=O)c3ccc4cc5n(c4c3)CCCNC5=O)nc2c1` [Example 41, N-(5-cyano-1H-benzimidazol-2-yl)-1-oxo-2,3,4,5-tetrahydro-1H-[1,4]diazepino[1,2-a]indole-8-carboxamide]: the IC50 stood at 4.9 nM.

For the compound `CC(C)(C)n1c(NC(=O)c2ccc3cc4n(c3c2)CCCNC4=O)nc2ccccc21` [Example 65, N-(1-tert-butyl-1H-benzimidazol-2-yl)-1-oxo-2,3,4,5-tetrahydro-1H-[1,4]diazepino[1,2-a]indole-8-carboxamide], the IC50 was 19 nM. The same measure for `Cc1cc(NC(=O)c2ccc3cc4n(c3c2)CC(C)CNC4=O)no1` (stereo not shown) [Example 182, 4-methyl-N-(5-methyl-1,2-oxazol-3-yl)-1-oxo-2,3,4,5-tetrahydro-1H-[1,4]diazepino[1,2-a]indole-8-carboxamide]: 150 nM; for `C[C@H]1NC(=O)c2cc3ccc(C(=O)Nc4cnn(C)c4)cc3n2[C@H]1C` (relative stereo) [Example 21, cis-3,4-dimethyl-N-(1-methyl-1H-pyrazol-4-yl)-1-oxo-1,2,3,4-tetrahydropyrazino[1,2-a]indole-7-carboxamide]: 4.3 nM.

Turning to `Cc1nc2ccc(NC(=O)c3ccc4cc5n(c4c3)CCCNC5=O)cc2s1` [Example 205, N-(2-methyl-1,3-benzothiazol-6-yl)-1-oxo-2,3,4,5-tetrahydro-1H-[1,4]diazepino[1,2-a]indole-8-carboxamide], the IC50 came out at 10 nM. Regarding `CN(C)CCCn1c(NC(=O)c2ccc3cc4n(c3c2)CC2(CC2)CNC4=O)nc2ccccc21` [Example 124, N-{1-[3-(dimethylamino)propyl]-1H-benzimidazol-2-yl}-1′-oxo-2′,3′-dihydro-1′H-spiro[cyclopropane-1,4′-[1,4]diazepino[1,2-a]indole]-8′-carboxamide], the IC50 worked out at 9.25 nM.

On to `Cc1cc(NC(=O)c2ccc3cc4n(c3c2)C(C)(C)CNC4=O)no1` [Example 126, 4,4-dimethyl-N-(5-methyl-1,2-oxazol-3-yl)-1-oxo-1,2,3,4-tetrahydropyrazino[1,2-a]indole-7-carboxamide], for which the IC50 is 36 nM. To `CN(C)CCCn1cc(NC(=O)c2ccc3cc4n(c3c2)CCCNC4=O)cn1` [Example 36, N-{1-[3-(dimethylamino)propyl]-1H-pyrazol-4-yl}-1-oxo-2,3,4,5-tetrahydro-1H-[1,4]diazepino[1,2-a]indole-8-carboxamide] belongs 84 nM; to `CN(C)CC(C)(C)Cn1c(NC(=O)c2ccc3cc4n(c3c2)CCCNC4=O)nc2ccccc21` [Example 84, N-{1-[3-(dimethylamino)-2,2-dimethylpropyl]-1H-benzimidazol-2-yl}-1-oxo-2,3,4,5-tetrahydro-1H-[1,4]diazepino[1,2-a]indole-8-carboxamide], 30 nM; to `O=C(Nc1nc2ccccc2n1CC(F)(F)F)c1ccc2cc3n(c2c1)CCCNC3=O` [Example 87, 1-oxo-N-[1-(2,2,2-trifluoroethyl)-1H-benzimidazol-2-yl]-2,3,4,5-tetrahydro-1H-[1,4]diazepino[1,2-a]indole-8-carboxamide], 4.8 nM.

Consider `C[C@@H]1NC(=O)c2cc3ccc(C(=O)Nc4cnn(Cc5ccccc5)c4)cc3n2[C@@H]1C` [Example 140, (3S,4R)-N-(1-benzyl-1H-pyrazol-4-yl)-3,4-dimethyl-1-oxo-1,2,3,4-tetrahydropyrazino[1,2-a]indole-7-carboxamide], for which the IC50 was 0.42 nM. Take `Cn1c(NC(=O)c2ccc3cc4n(c3c2)C(C)(C)CNC4=O)nc2ccccc21` [Example 59, 4,4-dimethyl-N-(1-methyl-1H-benzimidazol-2-yl)-1-oxo-1,2,3,4-tetrahydropyrazino[1,2-a]indole-7-carboxamide]: the IC50 amounted to 0.62 nM. `CS(=O)(=O)c1ccc2c(c1)nc(NC(=O)c1ccc3cc4n(c3c1)CCCNC4=O)n2CC(F)(F)F` [Example 118, N-[5-(methylsulfonyl)-1-(2,2,2-trifluoroethyl)-1H-benzimidazol-2-yl]-1-oxo-2,3,4,5-tetrahydro-1H-[1,4]diazepino[1,2-a]indole-8-carboxamide]: the IC50 worked out at 18 nM. To `Cn1cc(NC(=O)c2ccc3cc4n(c3c2)CC2(CCC2)CNC4=O)cn1` [Example 24, N-(1-methyl-1H-pyrazol-4-yl)-1′-oxo-2′,3′-dihydro-1′H-spiro[cyclobutane-1,4′-[1,4]diazepino[1,2-a]indole]-8′-carboxamide] belongs 320 nM; to `CC(C)(C)c1nnc(NC(=O)c2ccc3cc4n(c3c2)CCCNC4=O)s1` [Example 110, N-(5-tert-butyl-1,3,4-thiadiazol-2-yl)-1-oxo-2,3,4,5-tetrahydro-1H-[1,4]diazepino[1,2-a]indole-8-carboxamide], 96 nM.

In the case of `O=C(Nc1cc(Cc2ccccc2)on1)c1ccc2cc3n(c2c1)CCCNC3=O` [Example 212, N-(5-benzyl-1,2-oxazol-3-yl)-1-oxo-2,3,4,5-tetrahydro-1H-[1,4]diazepino[1,2-a]indole-8-carboxamide], the IC50 was 30 nM. `CC(C)n1c(NC(=O)c2ccc3cc4n(c3c2)C(C)CNC4=O)nc2ccccc21` (stereo not shown) [Example 74, 4-methyl-1-oxo-N-[1-(propan-2-yl)-1H-benzimidazol-2-yl]-1,2,3,4-tetrahydropyrazino[1,2-a]indole-7-carboxamide]: the concentration for half-maximal inhibition (IC50) came to 7.3 nM. `Cn1ccc(NC(=O)c2ccc3cc4n(c3c2)CCCNC4=O)n1` [Example 11, N-(1-methyl-1H-pyrazol-3-yl)-1-oxo-2,3,4,5-tetrahydro-1H-[1,4]diazepino[1,2-a]indole-8-carboxamide]: the IC50 was 540 nM. To `CCc1cc(NC(=O)c2ccc3cc4n(c3c2)CCCNC4=O)no1` [Example 181, N-(5-ethyl-1,2-oxazol-3-yl)-1-oxo-2,3,4,5-tetrahydro-1H-[1,4]diazepino[1,2-a]indole-8-carboxamide] belongs 34.5 nM; to `Cc1cc(NC(=O)c2ccc3cc4n(c3c2)[C@@H](C)CCNC4=O)no1` [Example 173, (5S)-5-methyl-N-(5-methyl-1,2-oxazol-3-yl)-1-oxo-2,3,4,5-tetrahydro-1H-[1,4]diazepino[1,2-a]indole-8-carboxamide], 1200 nM. As to `COCCn1cc(NC(=O)c2ccc3cc4n(c3c2)CCCNC4=O)cn1` [Example 38, N-[1-(2-methoxyethyl)-1H-pyrazol-4-yl]-1-oxo-2,3,4,5-tetrahydro-1H-[1,4]diazepino[1,2-a]indole-8-carboxamide], the IC50 turned out to be 19 nM. For `CC(C)(C)c1cc(NC(=O)c2ccc3cc4n(c3c2)CCCNC4=O)on1` [Example 195, N-(3-tert-butyl-1,2-oxazol-5-yl)-1-oxo-2,3,4,5-tetrahydro-1H-[1,4]diazepino[1,2-a]indole-8-carboxamide], the IC50 came out at 44 nM. Take `CC1CNC(=O)c2cc3ccc(C(=O)Nc4cc5ccccc5[nH]4)cc3n21` (stereo not shown) [Example 177, N-(1H-indol-2-yl)-4-methyl-1-oxo-1,2,3,4-tetrahydropyrazino[1,2-a]indole-7-carboxamide]: the IC50 stood at 8 nM.

Consider `O=C(Nc1cccc(Cl)c1)c1ccc2cc3n(c2c1)CCCNC3=O` [Example 1, N-(3-chlorophenyl)-1-oxo-2,3,4,5-tetrahydro-1H-[1,4]diazepino[1,2-a]indole-8-carboxamide], for which the IC50 came to 270 nM. As to `O=C(Nc1nc2ccccc2n1C1CCCC1)c1ccc2cc3n(c2c1)CCCNC3=O` [Example 75, N-(1-cyclopentyl-1H-benzimidazol-2-yl)-1-oxo-2,3,4,5-tetrahydro-1H-[1,4]diazepino[1,2-a]indole-8-carboxamide], the half-maximal inhibitory concentration (IC50) came out at 25 nM. The same measure for `CC1CNC(=O)c2cc3ccc(C(=O)Nc4nc5ccccc5n4CCCN(C)C)cc3n21` (stereo not shown) [Example 100, N-{1-[3-(dimethylamino)propyl]-1H-benzimidazol-2-yl}-4-methyl-1-oxo-1,2,3,4-tetrahydropyrazino[1,2-a]indole-7-carboxamide]: 1.3 nM; for `COc1ccc(NC(=O)c2ccc3cc4n(c3c2)CCCNC4=O)cc1` [Example 149, N-(4-methoxyphenyl)-1-oxo-2,3,4,5-tetrahydro-1H-[1,4]diazepino[1,2-a]indole-8-carboxamide]: 110 nM; for `C[C@H]1CNC(=O)c2cc3ccc(C(=O)Nc4cnn(Cc5ccccc5)c4)cc3n21` [Example 133, (4S)-N-(1-benzyl-1H-pyrazol-4-yl)-4-methyl-1-oxo-1,2,3,4-tetrahydropyrazino[1,2-a]indole-7-carboxamide]: 17.5 nM. For the compound `O=C(Nc1cc(-c2ccccc2)on1)c1ccc2cc3n(c2c1)CCCNC3=O` [Example 211, 1-oxo-N-(5-phenyl-1,2-oxazol-3-yl)-2,3,4,5-tetrahydro-1H-[1,4]diazepino[1,2-a]indole-8-carboxamide], the IC50 was determined as 290 nM. Consider `O=C(Nc1nc2ccccc2n1CCN1CCOCC1)c1ccc2cc3n(c2c1)CCCNC3=O` [Example 104, N-{1-[2-(morpholin-4-yl)ethyl]-1H-benzimidazol-2-yl}-1-oxo-2,3,4,5-tetrahydro-1H-[1,4]diazepino[1,2-a]indole-8-carboxamide], for which the IC50 came to 54 nM. As to `O=C(Nc1ccc2ccccc2n1)c1ccc2cc3n(c2c1)CCCNC3=O` [Example 5, 1-oxo-N-(quinolin-2-yl)-2,3,4,5-tetrahydro-1H-[1,4]diazepino[1,2-a]indole-8-carboxamide], the IC50 came out at 70 nM.
